Results: patent US10000471B2, “Pyrazole P38 map kinase inhibitors” (Respivert Limited, priority 2010, dated 2018)
“Also recorded” adds a separate entry of the source.

Tests used:
[1] = system: ICAM-1 induction in BEAS2B cells; experiment: Poly I:C-induced ICAM-1 induction in BEAS2B cells; type: cell-based, human; conditions: Homo sapiens, BEAS-2B, read-out: PolyIC/ICAM1 IC50 BEAS2B
Procedure, shortened: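 IC50 reflects inhibition of cell-surface ICAM-1 relative to vehicle, read by ELISA (OD450 against 655 nm) and divided by crystal violet OD595 for cell number. Readings were taken 18 hr after transfection of 1 μg/mL poly I:C into BEAS2B cells. Compound was added 2 hr before stimulation.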

[2] = system: Differentiated U937 cells; experiment: Cell viability MTT assay; type: cell-based, human; conditions: negative = apparent increase in viability; for MTT Assay (Viability) 4 h d-U937, percentage loss of cell viability: 4 hr in 5% FCS; for MTT Assay (Viability) 24 h d-U937, percentage loss of cell viability: 24 h in 10% FCS
Procedure, shortened: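 Differentiated U937 cells pre-incubated with compound either 4 hr in 5% FCS or 24 h in 10% FCS, then 1 hr MTT. Formazan dissolved in DMSO, absorbance at 550 nm. Percentage viability loss relative to 0.5% DMSO vehicle; apparent increases appear as negative percentages.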

[3] = system: TNFα release in d-U937 cells; experiment: LPS-induced TNFα release in d-U937 cells; type: cell-based, human; conditions: Homo sapiens, dU937, relative to 10 μg/mL BIRB796, read-out: LPS/TNFα REC50 d-U937
Procedure, shortened: (§1)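 Sandwich ELISA of TNFα and IL-8 in supernatants after 4 hr 0.1 μg/mL LPS (E. coli O111:B4) challenge of U937 cells differentiated with PMA 100 ng/ml for 48–72 hr, compound added 2 hr beforehand. IL-8: IC50 from inhibition versus vehicle; TNFα: REC50 from inhibition as percentage of 10 μg/mL BIRB796 effect.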

Balb/c mice = experiment: LPS-induced neutrophil accumulation in mice; type: in vivo; conditions: for % inhibition of Influx / Neutrophil numbers in BAL 8 h pre-dose: 0.2 mg/mL, 8 h pre-dose; for inhibitory effects versus neutrophil influx into the BALF: dosed 8 hr before the inflammatory stimulus
Description: LPS-Induced Neutrophil Accumulation in Mice
Non-fasted Balb/c mice were dosed by the intra tracheal route with either vehicle, or the test substance at the indicated times (within the range 2-8 hr) before stimulation of the inflammatory response by application of an LPS challenge. At T=0, mice were placed into an exposure chamber and exposed to LPS. After a further 8 hr the animals were anesthetized, their tracheas cannulated and BALF extracted by infusing and then withdrawing from their lungs 1.0 mL of PBS via the tracheal catheter. Total and differential white cell counts in the BALF samples were measured using a Neubaur haemocytometer. Cytospin smears of the BALF samples were prepared by centrifugation at 200 rpm for 5 min at RT and stained using a DiffQuik stain system (Dade Behring). Cells were counted using oil immersion microscopy.

[4] = system: IL-8 release in d-U937 cells; experiment: LPS-induced IL-8 release in d-U937 cells; type: cell-based, human; conditions: Homo sapiens, dU937
Procedure, shortened: as §1

[5] = system: TNFα release in THP-1 cells; experiment: LPS-induced TNFα release in THP-1 cells; type: cell-based, human; conditions: Homo sapiens
Procedure, shortened: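 IC50 derived from concentration-response of TNFα inhibition relative to vehicle, with TNFα quantified by sandwich ELISA in supernatants. THP-1 cells were challenged 4 hr with LPS (E. coli, 3 μg/mL).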

[6] = target: T1, p38 MAPKα isoform (MAPK14) (Homo sapiens, UniProt Q16539); experiment: Enzyme inhibition assay (FRET, Z-LYTE), p38 MAPKα via MAPKAP-K2 activation; type: biochemical; conditions: read-out: Enzyme Inhibition IC50 p38α
T1 construct: purchased Invitrogen
T1 sequence (Q16539 whole entry, canonical isoform): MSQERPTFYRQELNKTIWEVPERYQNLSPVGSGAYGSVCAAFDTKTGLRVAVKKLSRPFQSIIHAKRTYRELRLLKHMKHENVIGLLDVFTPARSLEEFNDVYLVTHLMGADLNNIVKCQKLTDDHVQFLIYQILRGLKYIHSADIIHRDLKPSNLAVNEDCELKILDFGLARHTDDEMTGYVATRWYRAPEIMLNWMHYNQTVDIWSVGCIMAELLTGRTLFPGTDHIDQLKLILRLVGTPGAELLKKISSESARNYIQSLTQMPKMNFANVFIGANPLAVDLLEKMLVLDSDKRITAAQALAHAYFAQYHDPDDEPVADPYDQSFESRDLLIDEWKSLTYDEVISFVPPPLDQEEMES
Procedure, shortened: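 Z-LYTE FRET format, in which protease cleaves only non-phosphorylated peptide, read after 1 h development. Compound was mixed with p38 MAPKα for 2 h at RT, and inhibition was gauged from MAPKAP-K2 activation/phosphorylation rather than directly. Percent inhibition against an uninhibited control was fitted to give IC50.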

p38 MAPKγ (MAPK12) = target: T2, p38 MAPKγ (MAPK12) (Homo sapiens, UniProt P53778); experiment: Enzyme inhibition assay (FRET, Z-LYTE), p38 MAPKγ; type: biochemical; conditions: read-out: Enzyme Inhibition IC50 p38γ
T2 construct: purchased Invitrogen
T2 sequence (P53778 1-367): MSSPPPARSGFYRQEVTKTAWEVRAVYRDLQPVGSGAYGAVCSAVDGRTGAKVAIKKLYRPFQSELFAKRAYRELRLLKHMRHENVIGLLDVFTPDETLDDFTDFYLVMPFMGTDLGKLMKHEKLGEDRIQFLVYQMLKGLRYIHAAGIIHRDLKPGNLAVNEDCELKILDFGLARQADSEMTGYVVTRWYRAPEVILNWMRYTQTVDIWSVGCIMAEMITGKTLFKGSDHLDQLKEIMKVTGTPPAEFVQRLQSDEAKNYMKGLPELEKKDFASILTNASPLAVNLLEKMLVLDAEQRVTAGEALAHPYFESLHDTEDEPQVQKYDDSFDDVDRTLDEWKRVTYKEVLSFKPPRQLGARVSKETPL
Procedure, shortened: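 Z-LYTE FRET readout: after 1 h kinase reaction (ATP 100 μM, peptide 2 μM) following 2 h RT enzyme–compound preincubation in HEPES, protease cleaves only unphosphorylated peptide. Percent inhibition from donor/acceptor ratio relative to control; IC50 fitted from the curve.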

A/J mice = experiment: Cigarette smoke model; type: in vivo; conditions: 1.75 μg/mouse (35 μL, bid, i.n.), cigarette smoke model
Description: A/J mice (males, 5 weeks old) were exposed to cigarette smoke (4% cigarette smoke, diluted with air) for 30 min/day for 11 days using a Tobacco Smoke Inhalation Experiment System for small animals (Model SIS-CS; Sibata Scientific Technology, Tokyo, Japan). Test substances were administered intra-nasally (35 μL of solution in 50% DMSO/PBS) twice daily for 3 days after the final cigarette smoke exposure. At 12 hr after the last dosing, each of the animals was anesthetized, the trachea cannulated and bronchoalveolar lavage fluid (BALF) was collected. The numbers of alveolar macrophages and neutrophils were determined by FACS analysis (EPICS® ALTRA II, Beckman Coulter, Inc., Fullerton, Calif., USA) using anti-mouse MOMA2 antibody (macrophage) or anti-mouse 7/4 antibody (neutrophil).
The data for cell numbers are shown as the mean±SEM.

| SMILES | EC50 [3] [nM] | IC50 [4] [nM] | IC50 [5] [nM] | IC50 [6] [nM] | IC50 (p38 MAPKγ (MAPK12)) [nM] | IC50 [1] [nM] | MTT Assay (Viability) 4 h d-U937, percentage loss of cell viability [2] [%] | MTT Assay (Viability) 24 h d-U937, percentage loss of cell viability [2] [%] | % inhibition of Influx (Balb/c mice; Table 5) [%] | Neutrophil numbers in BAL 8 h pre-dose (Balb/c mice; Table 5) | inhibitory effects versus neutrophil influx into the BALF (Balb/c mice) | % inhibition of Influx (Balb/c mice; Table 6) [%] | Neutrophil numbers in BAL 8 h pre-dose (Balb/c mice; Table 6) | neutrophil or macrophage accumulation into airways (A/J mice) | inhibition of LPS-induced neutrophil accumulation (Balb/c mice; 1.75 μg/mouse) [%] |
| --- | --- | --- | --- | --- | --- | --- | --- | --- | --- | --- | --- | --- | --- | --- | --- |
| Cc1ccc(-n2nc(C(C)(C)C)cc2NC(=O)Nc2ccc(Oc3cc(NC(=O)NCCN(C)C)ncn3)c(Cl)c2Cl)cc1 [Example 24, 1-(3-tert-Butyl-1-p-tolyl-1H-pyrazol-5-yl)-3-(2,3-dichloro-4-(6-(3-(2-(dimethylamino)ethyl)ureido)pyrimidin-4-yloxy)phenyl)urea] | 1.7 | 1.1 | 1.7 | 5.7 | 46.3 | 10.5 | −17.7 | 39.5 | 9 | 15.71 ± 2.48 × 10^5/mL | inhibitory effects | – | – | – | – |
| CC(C)(C)c1cc(NC(=O)Nc2ccc(Oc3ccnc(NC(=O)N4CCCC4)c3)c(Cl)c2Cl)n(-c2ccc(O)cc2)n1 [Example 75, N-(4-(4-(3-(3-tert-butyl-1-(4-hydroxyphenyl)-1H-pyrazol-5-yl)ureido)-2,3-dichlorophenoxy)pyridin-2-yl)pyrrolidine-1-carboxamide] | 1.3 | 1.7 | 0.4 | 147 | 181 | 0.3 | −33.7 | 6.6 | – | – | inhibitory effects; also recorded: particularly marked | 23 | 10.87 ± 2.13 × 10^5/mL | – | – |
| COCC(=O)Nc1cc(Oc2ccc(NC(=O)Nc3cc(C(C)(C)C)nn3-c3ccc(OC)cc3)c(Cl)c2Cl)ncn1 [Example 91, N-(6-(4-(3-(3-tert-butyl-1-(4-methoxyphenyl)-1H-pyrazol-5-yl)ureido)-2,3-dichlorophenoxy)pyrimidin-4-yl)-2-methoxyacetamide] | 1.2 | 5.9 | 1.6 | 58.3 | 162 | 2.9 | −47.2 | 6.9 | 33 | 11.67 ± 2.07 × 10^5/mL | inhibitory effects; also recorded: particularly marked | – | – | – | – |
| CNC(=O)Nc1nccc(Oc2ccc(NC(=O)Nc3cc(C(C)(C)C)nn3-c3ccc(OC)cc3)c(Cl)c2Cl)n1 [Example 98, 1-(3-tert-butyl-1-(4-methoxyphenyl)-1H-pyrazol-5-yl)-3-(2,3-dichloro-4-(2-(3-methylureido)pyrimidin-4-yloxy)phenyl) urea] | 1.9 | 2.7 | 1.4 | 32.5 | 101 | 4.1 | −25.9 | −29.3 | – | – | – | – | – | – | – |
| CN(C)CCNC(=O)Nc1cc(Oc2ccc(NC(=O)Nc3cc(C(C)(C)C)nn3-c3ccc(CO)cc3)c(Cl)c2Cl)ncn1 [Example 101, 1-(3-tert-butyl-1-(4-hydroxymethylphenyl)-1H-pyrazol-5-yl)-3-(2,3-dichloro-4-(6-(3-(2-(dimethylamino)ethyl)ureido)pyrimidin-4-yloxy)phenyl)urea] | 1.1 | 3.1 | 10.4 | 5.6 | 57.7 | 5.2 | 2.8 | 73.9 | – | – | – | – | – | – | – |
| CNC(=O)Nc1cc(COc2ccc(NC(=O)Nc3cc(C(C)(C)C)nn3-c3ccc(C)cc3)c(Cl)c2Cl)ccn1 [Example 102, 1-(4-((4-(3-(3-tert-butyl-1-p-tolyl-1H-pyrazol-5-yl)ureido)-2,3-dichlorophenoxy)methyl)pyridin-2-yl)-3-methylurea] | 4.7 | 4.8 | 3.5 | 44.1 | 140 | 25.4 | −14.1 | 8.8 | – | – | – | – | – | – | – |
| CCC(=O)O[C@]1(C(=O)SCF)[C@H](C)C[C@H]2[C@@H]3C[C@H](F)C4=CC(=O)C=C[C@]4(C)[C@@]3(F)[C@@H](O)C[C@@]21C [fluticasone propionate, reference compound] | – | – | – | – | – | – | – | – | – | – | – | – | – | did not inhibit | > 80 |

Second part, led by results:

| EC50 [3] [nM] | IC50 [4] [nM] | IC50 [5] [nM] | IC50 [6] [nM] | IC50 (p38 MAPKγ (MAPK12)) [nM] | SMILES | IC50 [1] [nM] | MTT Assay (Viability) 4 h d-U937, percentage loss of cell viability [2] [%] | MTT Assay (Viability) 24 h d-U937, percentage loss of cell viability [2] [%] | % inhibition of Influx (Balb/c mice; Table 5) [%] | Neutrophil numbers in BAL 8 h pre-dose (Balb/c mice; Table 5) | inhibitory effects versus neutrophil influx into the BALF (Balb/c mice) | % inhibition of Influx (Balb/c mice; Table 6) [%] | Neutrophil numbers in BAL 8 h pre-dose (Balb/c mice; Table 6) | neutrophil or macrophage accumulation into airways (A/J mice) | inhibition of LPS-induced neutrophil accumulation (Balb/c mice; 1.75 μg/mouse) [%] |
| --- | --- | --- | --- | --- | --- | --- | --- | --- | --- | --- | --- | --- | --- | --- | --- |
| 0.8 | 3.6 | 0.6 | 12.3 | 59.3 | CN(C)[C@H]1CCN(C(=O)Nc2cc(Oc3ccc(NC(=O)Nc4cc(C(C)(C)C)nn4-c4ccc(O)cc4)c(Cl)c3Cl)ccn2)C1 [Example 80, (S)-N-(4-(4-(3-(3-tert-butyl-1-(4-hydroxyphenyl)-1H-pyrazol-5-yl)ureido)-2,3-dichlorophenoxy)pyridin-2-yl)-3-(dimethylamino) pyrrolidine-1-carboxamide] | 2.3 | −3.0 | 15.7 | 12 | 15.22 ± 2.34 × 10^5/mL | inhibitory effects | – | – | – | – |
| 1 | 6.9 | 1.1 | 23.9 | 145 | CNC(=O)Nc1cc(Oc2ccc(NC(=O)Nc3cc(C(C)(C)C)nn3-c3ccc(CO)cc3)c(Cl)c2Cl)ncn1 [Example 99, 1-(3-tert-butyl-1-(4-hydroxymethylphenyl)-1H-pyrazol-5-yl)-3-(2,3-dichloro-4-(6-(3-methylureido)pyrimidin-4-yloxy)phenyl)urea] | 3.2 | 3.7 | 92.4 | – | – | – | – | – | – | – |
| 0.3 | 12.9 | 0.7 | 5.3 | 59.4 | COc1ccc(-n2nc(C(C)(C)C)cc2NC(=O)Nc2ccc(Oc3cc(NC(=O)NCCN(C)C)ncn3)c(Cl)c2Cl)cc1 [Example 100] | 2 | −43.0 | 17.2 | – | – | – | – | – | – | – |
